Measurements published in patent US9492496B2, “Aminothiazoles and their uses” (Novartis AG, priority 2007, dated 2016).

What follows are molecules tested on prokaryotic transcription-translation (E. coli S30 extract) (assay: In vitro assay for inhibition of prokaryotic transcription-translation (Promega E. coli S30 Extract System, pBESTluc luciferase readout)). Settings: 2 uM compound, 2 h at 37° C., luciferase luminescence.
Assay type: biochemical
Procedure: In vitro assay for inhibition of prokaryotic transcription-translation [as described in the following references: 1. Zubay, G. (1973) In vitro synthesis of protein in microbial systems. Annu. Rev. Genet. 7, 267.87. 2. Zubay, G. (1980) The isolation and properties of CAP, the catabolite gene activator. Meth. Enzymol. 65, 856.77]. Antibiotic and compound dilutions: stock solutions of compound to be assayed at 2 μM are 80 μM in 40% DMSO. Stock solutions of compounds to be assayed at 10 μM are 400 μM in 40% DMSO.
Assay setup and protocol for Promega E. coli S30 Extract System
The assay is performed as follows: pipet 3.5 μl of 286 ng/μl template DNA (pBESTluc™) into assay wells. Negative control wells receive sdH2O only. Transfer 0.5 μl of 40× compound stock solution to assay wells. Positive control wells (no compound) receive 0.5 μl 40% DMSO sdH2O. Pipet 16 μl of master mix into assay wells. Incubate plate for two hours at 37° C. Rapidly chill the assay plate on ice for five minutes to stop the reaction. Add an equal volume (20 μl) of room temperature Steady-Glo® Luciferase assay reagent to all assay wells. Incubate 20 minutes and read light emitted with luminometer. Results are reported as % inhibition a 2 μM or 10 μM.

| Compound | % inh. @ 2 uM |
| --- | --- |
| CNC(=O)C[C@@H]1NC(=O)c2csc(n2)-c2ccc(-c3nc(NC(=O)CC[C@H](CC(=O)O)C(=O)O)cs3)nc2-c2csc(n2)-c2csc(n2)[C@H]([C@@H](O)c2ccccc2)NC(=O)CNC(=O)c2nc(sc2COC)C(C(C)C)NC(=O)c2nc1sc2C (stereo partly shown) [Compound 1] | 2 uM = 65.4% |
| CNC(=O)C[C@@H]1NC(=O)c2csc(n2)-c2ccc(-c3nc(NC(=O)CC[C@@H](CC(=O)O)C(=O)O)cs3)nc2-c2csc(n2)-c2csc(n2)[C@H]([C@@H](O)c2ccccc2)NC(=O)CNC(=O)c2nc(sc2COC)C(C(C)C)NC(=O)c2nc1sc2C (stereo partly shown) [Compound 2] | 2 uM = 72.8% |
| CNC(=O)C[C@@H]1NC(=O)c2csc(n2)-c2ccc(-c3nc(N(CCCC(=O)O)C(=O)OCCCC(=O)O)cs3)nc2-c2csc(n2)-c2csc(n2)[C@H]([C@@H](O)c2ccccc2)NC(=O)CNC(=O)c2nc(sc2COC)C(C(C)C)NC(=O)c2nc1sc2C (stereo partly shown) [Compound 3] | 2 uM = 67.8% |
| CNC(=O)C[C@@H]1NC(=O)c2csc(n2)-c2ccc(-c3nc(N(CCCC(=O)O)C(=O)O[C@H]4CC[C@H](C(=O)O)CC4)cs3)nc2-c2csc(n2)-c2csc(n2)[C@H]([C@@H](O)c2ccccc2)NC(=O)CNC(=O)c2nc(sc2COC)C(C(C)C)NC(=O)c2nc1sc2C (stereo partly shown) [Compound 4] | 2 uM = 85.3% |
| CNC(=O)C[C@@H]1NC(=O)c2csc(n2)-c2ccc(-c3nc(N(CCCCCCC(=O)O)C(=O)O[C@H]4CC[C@H](C(=O)O)CC4)cs3)nc2-c2csc(n2)-c2csc(n2)[C@H]([C@@H](O)c2ccccc2)NC(=O)CNC(=O)c2nc(sc2COC)C(C(C)C)NC(=O)c2nc1sc2C (stereo partly shown) [Compound 5] | 2 uM = 78.5% |
| CNC(=O)C[C@@H]1NC(=O)c2csc(n2)-c2ccc(-c3nc(N(CCCCC(=O)O)C(=O)O[C@H]4CC[C@H](C(=O)O)CC4)cs3)nc2-c2csc(n2)-c2csc(n2)[C@H]([C@@H](O)c2ccccc2)NC(=O)CNC(=O)c2nc(sc2COC)C(C(C)C)NC(=O)c2nc1sc2C (stereo partly shown) [Compound 6] | 2 uM = 86.8% |
| CNC(=O)C[C@@H]1NC(=O)c2csc(n2)-c2ccc(-c3nc(N(CCCCCC(=O)O)C(=O)O[C@H]4CC[C@H](C(=O)O)CC4)cs3)nc2-c2csc(n2)-c2csc(n2)[C@H]([C@@H](O)c2ccccc2)NC(=O)CNC(=O)c2nc(sc2COC)C(C(C)C)NC(=O)c2nc1sc2C (stereo partly shown) [Compound 7] | 2 uM = 86.0% |
| CNC(=O)C[C@@H]1NC(=O)c2csc(n2)-c2ccc(-c3nc(N(CCCC(=O)O)C(=O)CCCCC(=O)O)cs3)nc2-c2csc(n2)-c2csc(n2)[C@H]([C@@H](O)c2ccccc2)NC(=O)CNC(=O)c2nc(sc2COC)C(C(C)C)NC(=O)c2nc1sc2C (stereo partly shown) [Compound 8] | 2 uM = 59.7% |
| CNC(=O)C[C@@H]1NC(=O)c2csc(n2)-c2ccc(-c3nc(N(CCCCC(=O)O)C(=O)O[C@H]4C[C@H](C(=O)O)C4)cs3)nc2-c2csc(n2)-c2csc(n2)[C@H]([C@@H](O)c2ccccc2)NC(=O)CNC(=O)c2nc(sc2COC)C(C(C)C)NC(=O)c2nc1sc2C (stereo partly shown) [Compound 9] | 2 uM = 67.1% |
| CNC(=O)C[C@@H]1NC(=O)c2csc(n2)-c2ccc(-c3nc(N(CCCCC(=O)O)C(=O)[C@H]4CC[C@H]4C(=O)O)cs3)nc2-c2csc(n2)-c2csc(n2)[C@H]([C@@H](O)c2ccccc2)NC(=O)CNC(=O)c2nc(sc2COC)C(C(C)C)NC(=O)c2nc1sc2C (stereo partly shown) [Compound 10] | 2 uM = 2.0% |
| CNC(=O)C[C@@H]1NC(=O)c2csc(n2)-c2ccc(-c3nc(NC(=O)N4C[C@H](CCC(=O)O)C[C@H](CCC(=O)O)C4)cs3)nc2-c2csc(n2)-c2csc(n2)[C@H]([C@@H](O)c2ccccc2)NC(=O)CNC(=O)c2nc(sc2COC)C(C(C)C)NC(=O)c2nc1sc2C (stereo partly shown) [Compound 11] | 2 uM = 92.3% |
| CNC(=O)C[C@@H]1NC(=O)c2csc(n2)-c2ccc(-c3nc(N(CCCC(=O)O)C(=O)CCCCCC(=O)O)cs3)nc2-c2csc(n2)-c2csc(n2)[C@H]([C@@H](O)c2ccccc2)NC(=O)CNC(=O)c2nc(sc2COC)C(C(C)C)NC(=O)c2nc1sc2C (stereo partly shown) [Compound 12] | 2 uM = 82.4% |
| CNC(=O)C[C@@H]1NC(=O)c2csc(n2)-c2ccc(-c3nc(N(CCCCC(=O)O)C(=O)OCc4ccc(C(=O)O)cn4)cs3)nc2-c2csc(n2)-c2csc(n2)[C@H]([C@@H](O)c2ccccc2)NC(=O)CNC(=O)c2nc(sc2COC)C(C(C)C)NC(=O)c2nc1sc2C (stereo partly shown) [Compound 13] | 2 uM = 74.9% |
| CNC(=O)C[C@@H]1NC(=O)c2csc(n2)-c2ccc(-c3nc(N(CCCC(=O)O)C(=O)c4ccc(C(=O)O)cn4)cs3)nc2-c2csc(n2)-c2csc(n2)[C@H]([C@@H](O)c2ccccc2)NC(=O)CNC(=O)c2nc(sc2COC)C(C(C)C)NC(=O)c2nc1sc2C (stereo partly shown) [Compound 14] | 2 uM = 55.5% |
| CNC(=O)C[C@@H]1NC(=O)c2csc(n2)-c2ccc(-c3nc(N(CCCC(=O)O)C(=O)C[C@H]4CC[C@H](C(=O)O)CC4)cs3)nc2-c2csc(n2)-c2csc(n2)[C@H]([C@@H](O)c2ccccc2)NC(=O)CNC(=O)c2nc(sc2COC)C(C(C)C)NC(=O)c2nc1sc2C (stereo partly shown) [Compound 15] | 2 uM = 64.5% |
| CNC(=O)C[C@@H]1NC(=O)c2csc(n2)-c2ccc(-c3nc(N(CCCCC(=O)O)C(=O)[C@H]4CC[C@H](C(=O)O)CC4)cs3)nc2-c2csc(n2)-c2csc(n2)[C@H]([C@@H](O)c2ccccc2)NC(=O)CNC(=O)c2nc(sc2COC)C(C(C)C)NC(=O)c2nc1sc2C (stereo partly shown) [Compound 16] | 2 uM = 64.3% |
| CNC(=O)C[C@@H]1NC(=O)c2csc(n2)-c2ccc(-c3nc(N(CCCCC(=O)O)C(=O)C[C@H]4CC[C@H](C(=O)O)CC4)cs3)nc2-c2csc(n2)-c2csc(n2)[C@H]([C@@H](O)c2ccccc2)NC(=O)CNC(=O)c2nc(sc2COC)C(C(C)C)NC(=O)c2nc1sc2C (stereo partly shown) [Compound 17] | 2 uM = 63.9% |
| CNC(=O)C[C@@H]1NC(=O)c2csc(n2)-c2ccc(-c3nc(N(CCCCC(=O)O)C(=O)N[C@H]4CC[C@H](C(=O)O)CC4)cs3)nc2-c2csc(n2)-c2csc(n2)[C@H]([C@@H](O)c2ccccc2)NC(=O)CNC(=O)c2nc(sc2COC)C(C(C)C)NC(=O)c2nc1sc2C (stereo partly shown) [Compound 18] | 2 uM = 52.7% |
| CNC(=O)C[C@@H]1NC(=O)c2csc(n2)-c2ccc(-c3nc(N(C/C=C/C(=O)O)C(=O)O[C@H]4CC[C@H](C(=O)O)CC4)cs3)nc2-c2csc(n2)-c2csc(n2)[C@H]([C@@H](O)c2ccccc2)NC(=O)CNC(=O)c2nc(sc2COC)C(C(C)C)NC(=O)c2nc1sc2C (stereo partly shown) [Compound 19] | 2 uM = 76.4% |
| CNC(=O)C[C@@H]1NC(=O)c2csc(n2)-c2ccc(-c3nc(N(CC(CC(=O)O)OC)C(=O)O[C@H]4CC[C@H](C(=O)O)CC4)cs3)nc2-c2csc(n2)-c2csc(n2)[C@H]([C@@H](O)c2ccccc2)NC(=O)CNC(=O)c2nc(sc2COC)C(C(C)C)NC(=O)c2nc1sc2C (stereo partly shown) [Compound 20] | 2 uM = 80.6% |
| CNC(=O)C[C@@H]1NC(=O)c2csc(n2)-c2ccc(-c3nc(N(CCCCC(=O)O)C(=O)N4CCC(C(=O)O)CC4)cs3)nc2-c2csc(n2)-c2csc(n2)[C@H]([C@@H](O)c2ccccc2)NC(=O)CNC(=O)c2nc(sc2COC)C(C(C)C)NC(=O)c2nc1sc2C (stereo partly shown) [Compound 21] | 2 uM = 37.4% |
| CNC(=O)C[C@@H]1NC(=O)c2csc(n2)-c2ccc(-c3nc(NC(=O)N(CCCC(=O)O)CCCC(=O)O)cs3)nc2-c2csc(n2)-c2csc(n2)[C@H]([C@@H](O)c2ccccc2)NC(=O)CNC(=O)c2nc(sc2COC)C(C(C)C)NC(=O)c2nc1sc2C (stereo partly shown) [Compound 22] | 2 uM = 79.8% |
